From patent US4496551A (priority 1983, dated 1985)

Assays:
Monilinia fructicola = assay: stone fruit brown rot colony growth inhibition on canned peach halves; type: cell-based; settings: 120 h, dipped 3 minutes, five days, percent growth inhibition of colonies, read-out: % Control Brown Rot
Description: Several compounds of the previous examples were again dissolved in acetone in an amount equal to 5% of the final volume and then suspended at a concentration of 100 ppm in purified water containing 700 ppm of the surfactant TREM 014 (polyhydric alcohol esters). Canned peach halves were dipped in this suspension for three minutes and then placed to air dry in sterile containers. Upon drying, the peach halves were inoculated with two pieces of Monilinia fructicola, causal agent of stone fruit brown rot, mycelium and then incubated in the sterile containers for five days. At that time the radii of the colonies' growth were measured on each peach. […] Percent disease contol (percent growth inhibition of colonies on treated peaches as compared to that of colonies on untreated peaches) is expressed in the table below.

Pyricularia oryzae = assay: whole plant or invertebrate; type: in vivo; settings: 168 h, read-out: % Control of Rice Blast
Venturia inaequalis = assay: apple scab control on apple seedlings; type: in vivo; settings: Venturia inaequalis; 100 ppm
Method in brief: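 Apple seedlings sprayed to run-off with 100 ppm compound suspension (6% acetone, 250 ppm TREM 014 surfactant). Inoculated next day with Venturia inaequalis spores; 24 hours at 20° in saturated humidity, then 10-12 days in growth room. Scab lesions compared with untreated plants.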

Helminthosporium maydis = assay: southern corn leaf blight control on corn seedlings; type: in vivo; settings: Bipolaris maydis, 168 h
Method in brief: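 Corn seedlings were sprayed to run-off with 100 ppm compound (6% acetone, 250 ppm TREM 014), inoculated next day with H. maydis spores, then kept 24 h at 20° in saturated humidity and 7 more days in a growth room. Lesions were rated as disease score.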

Cercospora arachidicola = assay: peanut early leafspot control on peanut seedlings; type: in vivo; settings: Mycosphaerella arachidis, 336 h
Method in brief: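 Compounds dissolved in acetone (6% of final volume) and suspended at 100 ppm in water with 250 ppm TREM 014, sprayed to run-off on seedlings. Cercospora arachidicola inoculated next day; 24 h saturated humidity at 27°, then 14 days growth room before disease and leafspot rating.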

Pythium aphanadermatum [1] = assay: Pythium control on coated corn seeds; type: in vivo; settings: 504 h, 2 gm/kg seed, 49° F. 2 weeks then 70° F. 1 week
Experimental: Several compounds of the previous examples were incorporated into a proprietary formulation and used to coat corn seeds at a rate of 2 gm/kg seed. After being thoroughly coated, the seeds were allowed to air dry at room temperature. The seeds were then planted into soil amended with a mixture of the fungus Pythium aphanadermatum, sand, and corn meal at a rate sufficient to kill most untreated seeds. The seeds were held at 49° F. for 2 weeks and then at 70° F. for 1 additional week. After this time disease ratings were made.

Pythium aphanadermatum [2] = assay: Pythium control on coated cotton seeds; type: in vivo; settings: 168 h; for pest or weed control at 2000 mg/kg: 2 gm/kg seed, 1 week
Description: Several compounds of the previous examples were incorporated into a proprietary formulation and used to coat cotton seeds at a rate of 2 gm/kg seed. After being thoroughly coated, the seeds were allowed to air dry at room temperature. The cotton seeds were then planted into soil amended with the fungus Pythium aphanadermatum, sand, and corn meal at a rate sufficient to kill most untreated seeds. The seeds were held at room temperature for 1 week, after which time disease ratings were made.

Erysiphe graminis = assay: barley powdery mildew control on barley seedlings; type: in vivo; settings: Blumeria graminis, 168 h; for pest or weed control at 100 ppm: 7 days
Experimental: Several compounds of the previous examples were again dissolved in acetone in an amount equal to 6% of the final volume and then suspended at a concentration of 100 ppm in purified water containing 250 ppm of the surfactant TREM 014 (polyhydric alcohol esters). This suspension was sprayed to the point of run-off on barley seedlings. The following day, the plants were inoculated with a spore suspension of the fungus Erysiphe graminis, causal agent of barley powdery mildew, and incubated in a growth room for 7 days. Disease ratings were then made. Treated plants had little or no powdery mildew in contrast to untreated plants which were covered with powdery mildew.

Erysiphe cichoracearum = assay: cucumber powdery mildew control on cucumber seedlings; type: in vivo; settings: Golovinomyces cichoracearum, 168 h, 7 days
Method in brief: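 Compounds at 100 ppm in water with 6% acetone and 250 ppm TREM 014 surfactant, sprayed to run-off on cucumber seedlings. Inoculation with Erysiphe cichoracearum spores the following day; disease rated after 7 days in a growth room against untreated plants.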

Phytophthora infestans = assay: whole plant or invertebrate; type: in vivo; settings: Phytophthora infestans, in Solanum lycopersicum, 168 h, read-out: % Control of Tomato Late Blight
5 Phytophthora species = type: cell-based; settings: 200.0 ppm in agar, 22° C., 6 days; controlled = radial growth 1 mm or less
[3] = tested on: Puccinia recondita var. tritici; assay: wheat leaf rust control on wheat seedlings; type: in vivo; settings: for pest or weed control at 100 ppm: sprayed day before inoculation
Method in brief: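 Compounds at 100 ppm (6% acetone, 250 ppm polyhydric alcohol ester surfactant in water) sprayed to run-off on wheat seedlings; inoculated next day with P. recondita spores. Kept 24 h at saturated humidity, 20°, then 7 days in growth room before rust pustule rating.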

Rhizoctonia solani = assay: rice sheath blight control on rice seedlings; type: in vivo; settings: Rhizoctonia solani, 168 h, 7 days
Method in brief: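 Rice seedlings sprayed to run-off with 100 ppm compound suspension (6% acetone, 250 ppm surfactant), then inoculated next day with bran/mycelium of Rhizoctonia solani. After 7 days in a growth room, sheath blight disease was rated.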

apple seedlings = assay: phytotoxicity on apple seedlings; type: in vivo; parameters: key: B: Phytotoxic burn; settings: 100 ppm
Experimental: Compounds of this invention were dissolved in acetone in an amount equal to 6% of the final volume and then suspended at a concentration of 100 ppm in purified water containing 250 ppm of the surfactant TREM 014 (polyhydric alcohol esters). This suspension was sprayed to the point of run-off on apple seedlings. The following day, the plants were inoculated with a spore suspension of the fungus Venturia inaequalis, causal agent of apple scab, and incubated in a saturated humidity chamber at 20° for 24 hours and then in a growth room for an additional 10-12 days. Treated plants from successful treatments had few or no apple scab lesions when compared to untreated plants which were covered with scab lesions.

cucumber seedlings = assay: phytotoxicity on cucumber seedlings; type: in vivo; parameters: key: G: growth reduction; H: hormonal effects; settings: 100 ppm

| Compound | inhibition of growth at 100 ppm (Monilinia fructicola) | pest or weed control at 100 ppm (Pyricularia oryzae) | pest or weed control at 100 ppm (Venturia inaequalis) | pest or weed control at 100 ppm (Helminthosporium maydis) | pest or weed control at 100 ppm (Cercospora arachidicola) | pest or weed control at 2000 mg/kg (Pythium aphanadermatum [1]) | pest or weed control at 2000 mg/kg (Pythium aphanadermatum [2]) | pest or weed control at 100 ppm (Erysiphe graminis) | pest or weed control at 100 ppm (Erysiphe cichoracearum) | pest or weed control at 100 ppm (Phytophthora infestans) | No. of 5 Phytophthora species controlled in vitro (5 Phytophthora species) | pest or weed control at 100 ppm [3] | pest or weed control at 100 ppm (Rhizoctonia solani) | Phytotoxic burn (apple seedlings) | pest or weed control at 200 ppm (Erysiphe graminis; 200 ppm) | pest or weed control at 400 ppm ([3]; 400 ppm) | Phytotoxicity (growth reduction or hormonal effects) (cucumber seedlings) | pest or weed control at 500 mg/kg (Pythium aphanadermatum [2]; 0.5 gm/kg seed) |
| --- | --- | --- | --- | --- | --- | --- | --- | --- | --- | --- | --- | --- | --- | --- | --- | --- | --- | --- |
| C[Si](C)(Cn1ccnc1)c1ccc(Oc2ccccc2)cc1 [(1H-Imidazol-1-ylmethyl)dimethyl(4-phenoxyphenyl)silane] | 80% | 70% | 100% | 0% | 0% | 5% | 0% | 0% | 100% | 80% | 4 | 60% | 70% |  |  |  |  |  |
| C[Si](Cn1ccnc1)(c1ccccc1)c1ccc(Cl)cc1 (centres unmarked) [(4-Chlorophenyl)(1H-imidazol-1-ylmethyl)methyl(phenyl)silane] | 45% | 0% | 100% | 0% | 100% |  |  |  | 100% | 0% | 0 | 100% | 0% |  |  |  |  |  |
| CCCCCCCCCCCC[Si](C)(C)Cn1ccnc1 [Dodecyl(dimethyl)(1H-imidazol-1-ylmethyl)silane] |  |  | 0% | 0% |  |  |  |  | 55% |  |  |  |  | B | 100% | 80% |  |  |
| C[Si](C)(Cn1ccnc1)C1CCCCC1 [Cyclohexyl(dimethyl(1H-imidazol-1-ylmethyl)silane] |  |  | 100% | 50% | 0% |  |  |  | 100% |  |  | 0% | 0% | B |  |  | G |  |
| CCCC[Si](C)(Cn1ccnc1)c1ccc(Cl)cc1 (centres unmarked) [Butyl(4-chlorophenyl)(1H-imidazol-1-ylmethyl)methylsilane] | 45% | 0% | 90% | 50% | 0% | 0% | 0% | 100% | 100% | 0% |  | 90% | 0% |  |  |  | G |  |
| COc1ccc([Si](C)(C)Cn2ccnc2)cc1 [Dimethyl(1H-imidazol-1-ylmethyl)(4-methoxyphenyl)silane] |  | 0% | 0% | 0% | 0% |  |  | 100% | 100% | 0% | 0 | 60% | 0% |  |  |  |  |  |
| C[Si](C)(Cn1ccnc1)c1ccc(Oc2ccc(Cl)cc2)cc1 [[4-(4-Chlorophenoxy)phenyl]dimethyl(1H-imidazol-1-ylmethyl)silane] |  | 100% | 0% | 0% | 0% | 0% |  |  | 100% | 0% | 0 | 90% | 70% |  |  |  |  |  |
| C[Si](C)(Cn1ccnc1)c1ccc(Cl)c(Cl)c1 [(3,4-Dichlorophenyl)(1H-imidazol-1-ylmethyl)dimethylsilane] |  | 0% | 80% | 70% | 0% | 30% |  | 80% | 100% | 0% |  | 0% | 0% |  |  |  |  | 15% |
| C[Si](Cn1ccnc1)(c1ccccc1)c1ccc(F)cc1 (centres unmarked) [(4-Fluorophenyl)(1H-imidazol-1-ylmethyl)methyl(phenyl)silane] | 65% | 100% | 100% | 80% | 100% |  |  |  | 100% | 0% | 2 | 0% | 90% |  |  |  |  |  |
| C[Si](Cn1ccnc1)(c1ccc(F)cc1)c1ccc(F)cc1 [bis(4-Fluorophenyl)(1H-imidazol-1-ylmethyl)methylsilane] |  | 0% | 100% | 60% | 100% |  |  |  | 100% | 0% | 0 | 100% | 90% |  |  |  |  |  |
| CCCC[Si](C)(Cn1ccnc1)c1ccc(Cl)cc1Cl (centres unmarked) [Butyl(2,4-dichlorophenyl)(1H-imidazol-1-ylmethyl)methylsilane] |  | 0% | 100% | 80% | 100% |  |  |  | 100% | 0% |  | 100% | 90% | B |  |  | G |  |
